Entries after “also recorded” stand apart in the source; their conditions may differ.
Key:
[1] = system: Aptamer 21; test: Competition between Aptamer 21 photoprobes and RNA-binding ligands (RT pausing)
Protocol: Aptamer 21 was either incubated with probe alone (ARK-581) or probe plus a 10-fold excess of RNA-binding ligand.
Both ARK-852 and ARK-139 inhibit the photocrosslinking of probes to Aptamer 21.
Folded RNA (1 μM) was incubated with the photoaffinity probe (10 μM) in total 25 μL of buffer (20 mM TrisHCl pH 8, 100 mM KCl, 3 mM MgCl2) with 2.5% DMSO for 30 min at 37° C. to allow binding to come to equilibrium. The sample was then irradiated with long wave UV light (˜365 nm) for 30 min in a UV crosslinker (Fisher Scientific).
A 3.75 μL aliquot of 10 μM reverse transcription primer was added to the cross-linked RNA sample, which was then incubated for 5 min at 65° C. and then cooled on ice. The sample was then diluted to a final volume of 60 μL and final buffer concentration of 1× Protoscript-II buffer (New England Biolabs), 0.5 mM dNTPs, 10 mM DTT, 0.4 U/μL RNase Inhibitor (New England Biolabs), and 10 U/μL Protoscript-II (New England Biolabs). The reaction was incubated at 45° C. for 2 h, 65° C. for 20 min, and then 4° C.
The RNA was hydrolyzed by the addition of 4.8 μL of 2.5 M NaOH and heating at 95° C. for 5 min. The reaction was quenched by the addition of 0.9 μL of acetic acid. The cDNA was precipitated by the addition of 6.6 μL of 3 M sodium acetate pH 5 and 181 μL ethanol, cooling to −80° C. for 1 h, and then centrifuging at 20,500×g at 4° C. for 30 min. The cDNA pellet was washed twice with 500 μL of 70% ethanol and then air dried for 5 min.
The cDNA pellet was resuspended in 12 μL of 1×TBE-urea sample loading buffer (Bio-Rad) and heated to 95° C. for 5 min. The sample was then run on a pre-cast 8.6×6.7 cm TBE-urea 10% PAGE gel (Bio-Rad) at 120 V until the lower bromophenol blue dye reached the bottom of the gel. The gel was stained with 1×SYBR-gold (Invitrogen) in 1×TBE buffer at room temperature for 20 min covered from light. The gel fluorescence was imaged on an Azure c600 instrument.

[2] = system: Aptamer 21-E; test: SEC/LCMS binding to Aptamer 21-E
Protocol: The RNA concentration was 1 μM and the ligand concentration ranged from 0.1 to 10 μM in an appropriate buffer (TRIS-HCl 20 mM pH 8.0, MgCl2 3 mM, KCl 100 mM).
The RNA/ligand mixtures were incubated at room temperature for 20 minutes in a 96-well plate format, then this plate was loaded into an autosampler linked to the chromatography system fitted with a reusable SEC column for rapid separation of target/ligand complexes from unbound components. RNA/ligand complexes in SEC eluent were monitored by UV detection, and an automated valving system directed the RNA peak to a reverse phase chromatography column for dissociation, desalting, and elution of any ligands into an ESI-MS system for identification.
All liquid chromatographic components were HP1200 modules. The mass spectrometer was the Waters LCT premier instrument operated in positive electrospray (ES+) TOF-MS mode. The mass range acquired was 80-1000 m/z in 0.25 s. The SEC column was 50×4.6 mm polyhydroxyethyl column. The SEC mobile phase was 50 mM phosphate buffer with 200 mM NaCl, pH=7.0. The LC column was a 2.1×50 mm C18 Phenomenex column. The gradient LC mobile phase A was 0.1% formic acid in water and B was acetonitrile/water with 0.1% formic acid. The run time was 7.9 min.
The start of saturation was between 1 and 3 μM.

[3] = cited from earlier work
[4] = system: Aptamer 21-E; test: SPR binding to mutant Aptamer 21-E; conditions: data not shown; listed as ARK-139
Description: Surface plasmon resonance (SPR) may be used to screen ligands and hook and click constructs for binding to a target RNA of interest. SPR is especially useful for monitoring biomolecular interactions in real time. Typically, target species and unrelated control are immobilized to a sensor chip, then analytes (compounds/fragments) are flowed over the surface. Binding of the compound to target species results in increase of SPR signal (association phase). Washing away bound compound with buffer results in a decrease of SPR signal (dissociation phase). Fitting of sensorgrams recorded at different compound concentrations is performed to an appropriate interaction model. The method allows extraction of kinetic parameters (ka, kd→KD). Requirements/limitations include that the ka/kd values be in reasonable ranges; and the target size must not be too large (<100 kDa). It is an excellent method to screen fragments and profile or validate hits. BC4000 may be used for primary screening (up to 4,000 data pts/week). Biacore T200 is suitable for hit profiling and validation.
Experiments were performed on a MASS-2 (Sierra Sensors) at 25° C. A high capacity amine chip was equilibrated with PBS. The chip was conditioned with alternating injections of 10 mM HCl and 10 mM NaOH in 1 M NaCl. […]

[5] = target: Aptamer-21; conditions: Lau et al., ACS Nano 2011; read-out: Kd of Aptamer-21 against compound 1b; cited from earlier work

inhibition of photocrosslinking of ARK-581 to Aptamer 21 ([1]; 10-fold excess of RNA-binding ligand over probe): efficiently inhibited | inhibition of photocrosslinking of probes to Aptamer 21 (RT pausing competition assay) ([1]; FIG. 65): inhibit | binding to Aptamer 21-E by SEC/LCMS [2]: does not bind | binding to Aptamer 21-E by SPR [4]: not to bind; also recorded: did not bind
Structure (SMILES): COC(=O)C1=C(COCc2cn(CCOCCOCCO)nn2)NC(c2ccncc2)=NC1c1ccc(F)cc1Cl (racemic) [I-1]
water solubility [3]: water-soluble | Kd [5]: 50 nM

From patent publication US12503455B2, “Nucleic acid-binding photoprobes and uses thereof” (Arrakis Therapeutics, Inc., priority 2017, dated 2025)
